From patent publication US20020137929A1, “1 - (3-heterocyclylphenyl) isothiourea, -isourea, -guanidine and -amidine herbicidal agents” (Intellectual Property Department, BASF Aktiengesellschaft, priority 1998, published 2002)

How the values were obtained:
[1] = tested on: ECHORC (Watergrass (Calif.)); experiment: Postemergence weed control under flooded paddy conditions; assay type: in vivo, Echinochloa oryzoides; settings: postemergence weeds, 3-4 weeks after treatment
Description: (§1) Results of herbicide evaluation are expressed on a rating scale (0-9). The scale is based upon a visual observation of plant stand, vigor, malformation, size, chlorosis and overall plant appearance as compared with a control.
(§2) Plastic containers containing weeds which are 3 to 5 cm tall and rice seedlings at the 1.5 to 2.5 leaf stage are flooded with water. The water is maintained at 1.5 to 3 cm above the soil surface for the duration of the experiment. Test compounds are applied as aqueous/ acetone mixtures 50/50 v/v directly into the flood water to provide the equivalent of about 0.0313 to 0.500 kg/ha of active ingredient. The treated containers are placed on greenhouse benches and cared for in accordance with conventional greenhouse procedures. Three to four weeks after treatment, the test is terminated and each container is examined and herbicidal effect rated according to the rating system provided in Example 37. The compounds evaluated are reported by compound number given in Example 37.

[2] = tested on: CHEAL (Lambsquarters, Common); experiment: Postemergence herbicidal evaluation; assay type: in vivo, Chenopodium album
Procedure: (§3) In the tests, seedling plants are grown in jiffy flats for about two weeks. The test compounds are dispersed in 50/50 acetone/water mixtures containing 0.5% TWEEN®20, a polyoxyethylene sorbitan monolaurate surfactant of Atlas Chemical Industries, in sufficient quantities to provide the equivalent of about 0.0156 kg to 0.500 kg per hectare of active compound when applied to the plants through a spray nozzle operating at 40 psi for a predetermined time. After spraying, the plants are placed on greenhouse benches and are cared for in accordance with conventional greenhouse procedures. From four to five weeks after treatment, the seedling plants are examined and rated according to the rating system set forth below. Where more than one test is involved for a given compound, the data are averaged.
(§4) Plant species employed in these evaluations are reported by header abbreviation, common name and scientific name.
as §1

SETVI (Foxtail, Green) = experiment: Postemergence herbicidal evaluation; assay type: in vivo, Setaria viridis
Procedure: as §3, §4, §1

[3] = tested on: SAGPY (Arrowhead (Pygmaea)); experiment: Postemergence weed control under flooded paddy conditions; assay type: in vivo, Sagittaria pygmaea; settings: postemergence weeds, 3-4 weeks after treatment
Description: as §1, §2

CYPIR (Rice Flatsedge) [4] = experiment: Preemergence weed control under flooded paddy conditions; assay type: in vivo, Cyperus iria; settings: rated 3-4 weeks after treatment
Procedure: as §1
Preemergence herbicidal activity under flooded paddy conditions is determined as follows: plant seeds or propagating organs are planted in the top 0.5 cm of silt loam soil in 32 oz. plastic containers with a diameter of 10.5 cm and no drainage holes. Water is added to these containers and maintained at 1.5 to 3 cm above the soil surface for the duration of the experiment. The test compounds are applied as aqueous/acetone mixtures 50/50 v/v pipetted directly into the flood water to give the equivalent of about 0.0313 to 0.500 kg/ha of active ingredient. The treated containers are placed on greenhouse benches and cared for in accordance with conventional greenhouse procedures. Three to four weeks after treatment, the test is terminated and each container is examined and herbicidal effect rated according to the rating system provided in Example 37. The compounds evaluated are reported by compound number given in Example 37.
Plant species employed in this example are reported by header abbreviation, common name and scientific name.

AMBEL (Ragweed, Common) = experiment: Postemergence herbicidal evaluation; assay type: in vivo, Ambrosia artemisifolia
Method in brief: (§5)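 Two-week-old seedlings sprayed with compound in 50/50 acetone/water plus 0.5% TWEEN 20, at about 0.0156 to 0.500 kg/ha, nozzle at 40 psi. Kept in greenhouse; rated visually 4-5 weeks after treatment on a 0-9 scale versus control, repeat tests averaged.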

MOOVA (Monochoria) [5] = experiment: Preemergence weed control under flooded paddy conditions; assay type: in vivo, Monochoria vaginalis; settings: rated 3-4 weeks after treatment
Method in brief: (§6)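 Greenhouse paddy assay. Acetone/water (50/50 v/v) solutions dosed into flood water, equivalent to about 0.0313 to 0.500 kg/ha active ingredient, over seeds planted 0.5 cm deep in silt loam. Score: 0-9 visual, based on stand, vigor, malformation, size and chlorosis, 3 to 4 weeks after treatment.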

[6] = tested on: IPOHE (Morningglory, Ivyleaf); experiment: Postemergence herbicidal evaluation; assay type: in vivo, Ipomoea hederacea
Procedure: as §3, §4, §1

CYPSE (Flatsedge) [7] = experiment: Preemergence weed control under flooded paddy conditions; assay type: in vivo, Cyperus serotinus; settings: rated 3-4 weeks after treatment
Method in brief: as §6

[8] = tested on: TRZAWR (Wheat, Winter, cv Riband); experiment: Postemergence herbicidal evaluation; assay type: in vivo, Triticum aestivum
Procedure: as §3, §4, §1

GALAP (Galium) = experiment: Postemergence herbicidal evaluation; assay type: in vivo, Galium aparine
Method in brief: as §5

CYPIR (Rice Flatsedge) [9] = experiment: Postemergence weed control under flooded paddy conditions; assay type: in vivo, Cyperus iria; settings: postemergence weeds, 3-4 weeks after treatment
Description: as §1, §2

[10] = tested on: ECHORC (Watergrass (Calif.)); experiment: Preemergence weed control under flooded paddy conditions; assay type: in vivo, Echinochloa oryzoides; settings: rated 3-4 weeks after treatment
Method in brief: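 First, seeds or propagules go into the top 0.5 cm of silt loam; next, water is held 1.5 to 3 cm over the soil; then compound (50/50 acetone/water) is pipetted into it at about 0.0313 to 0.500 kg/ha; finally plants are rated visually 0-9 after three to four weeks.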

ZEAMX (Corn, Field) = experiment: Postemergence herbicidal evaluation; assay type: in vivo, Zea mays
Method in brief: as §5

CYPSE (Flatsedge) [11] = experiment: Postemergence weed control under flooded paddy conditions; assay type: in vivo, Cyperus serotinus; settings: postemergence weeds, 3-4 weeks after treatment
Description: as §1, §2

[12] = tested on: SAGPY (Arrowhead (Pygmaea)); experiment: Preemergence weed control under flooded paddy conditions; assay type: in vivo, Sagittaria pygmaea; settings: rated 3-4 weeks after treatment
Method in brief: as §6

MOOVA (Monochoria) [13] = experiment: Postemergence weed control under flooded paddy conditions; assay type: in vivo, Monochoria vaginalis; settings: postemergence weeds, 3-4 weeks after treatment
Description: as §1, §2

ABUTH (Velvetleaf) = experiment: Postemergence herbicidal evaluation; assay type: in vivo, Abutilon theophrasti
Procedure: as §3, §4, §1

[14] = tested on: GLXMAW (Soybean, Williams); experiment: Postemergence herbicidal evaluation; assay type: in vivo, Glycine max, (L.) Merr. cv Williams
Method in brief: as §5

ORYSAT (Rice, Tebonnet) = experiment: Postemergence herbicidal evaluation; assay type: in vivo, Oryza sativa, (L.) Tebonnet
Procedure: as §3, §4, §1

ECHCG (Barnyardgrass) = experiment: Postemergence herbicidal evaluation; assay type: in vivo, Echinochloa crus-galli
Procedure: as §3, §4, §1

CASOB (Sicklepod) = experiment: Postemergence herbicidal evaluation; assay type: in vivo, Cassia obtusifolia
Method in brief: as §5

## CCOC(=O)CN1C(=O)C(CC(=O)NC)SC1=Nc1cc(-n2c(=O)cc(C(F)(F)F)n(C)c2=O)c(F)cc1Cl (stereo not shown) [Compound 57, Ethyl 2-{{2-chloro-5-[3,6-dihydro-3-methyl-2,6-dioxo-4-(trifluoromethyl)-1(2H)-pyrimidinyl]-4-fluorophenyl}imino}-5-[(methylcarbamoyl)methyl]-4-oxo-3-thiazolidineacetate]
[1]; rate 0.0313 kg/ha
  Herbicidal rating ECHORC: 0.0
[1]; rate 0.0625 kg/ha
  Herbicidal rating ECHORC: 2.0
[1]; rate 0.1250 kg/ha
  Herbicidal rating ECHORC: 2.0
[1]; rate 0.2500 kg/ha
  Herbicidal rating ECHORC: 5.0
[2]; Rate 0.0158 kg/ha
  Postemergence herbicidal rating CHEAL: 9.0
[2]; Rate 0.0315 kg/ha
  Postemergence herbicidal rating CHEAL: 9.0
[2]; Rate 0.0630 kg/ha
  Postemergence herbicidal rating CHEAL: 9.0
SETVI (Foxtail, Green); Rate 0.0158 kg/ha
  Postemergence herbicidal rating SETVI: 2.0
SETVI (Foxtail, Green); Rate 0.0315 kg/ha
  Postemergence herbicidal rating SETVI: 4.0
SETVI (Foxtail, Green); Rate 0.0630 kg/ha
  Postemergence herbicidal rating SETVI: 5.0
[3]; rate 0.0313 kg/ha
  Herbicidal rating SAGPY: 0.0
[3]; rate 0.0625 kg/ha
  Herbicidal rating SAGPY: 0.0
[3]; rate 0.1250 kg/ha
  Herbicidal rating SAGPY: 0.0
[3]; rate 0.2500 kg/ha
  Herbicidal rating SAGPY: 6.0
CYPIR (Rice Flatsedge) [4]; 0.0313 kg/ha
  Herbicidal rating CYPIR: 0.0
CYPIR (Rice Flatsedge) [4]; 0.0625 kg/ha
  Herbicidal rating CYPIR: 9.0
CYPIR (Rice Flatsedge) [4]; 0.1250 kg/ha
  Herbicidal rating CYPIR: 9.0
CYPIR (Rice Flatsedge) [4]; 0.2500 kg/ha
  Herbicidal rating CYPIR: 9.0
AMBEL (Ragweed, Common); Rate 0.0158 kg/ha
  Postemergence herbicidal rating AMBEL: 9.0
AMBEL (Ragweed, Common); Rate 0.0315 kg/ha
  Postemergence herbicidal rating AMBEL: 9.0
AMBEL (Ragweed, Common); Rate 0.0630 kg/ha
  Postemergence herbicidal rating AMBEL: 9.0
MOOVA (Monochoria) [5]; 0.0313 kg/ha
  Herbicidal rating MOOVA: 9.0
MOOVA (Monochoria) [5]; 0.0625 kg/ha
  Herbicidal rating MOOVA: 9.0
MOOVA (Monochoria) [5]; 0.1250 kg/ha
  Herbicidal rating MOOVA: 9.0
MOOVA (Monochoria) [5]; 0.2500 kg/ha
  Herbicidal rating MOOVA: 9.0
[6]; Rate 0.0158 kg/ha
  Postemergence herbicidal rating IPOHE: 9.0
[6]; Rate 0.0315 kg/ha
  Postemergence herbicidal rating IPOHE: 9.0
[6]; Rate 0.0630 kg/ha
  Postemergence herbicidal rating IPOHE: 9.0
CYPSE (Flatsedge) [7]; 0.0313 kg/ha
  Herbicidal rating CYPSE: 0.0
CYPSE (Flatsedge) [7]; 0.0625 kg/ha
  Herbicidal rating CYPSE: 0.0
CYPSE (Flatsedge) [7]; 0.1250 kg/ha
  Herbicidal rating CYPSE: 0.0
CYPSE (Flatsedge) [7]; 0.2500 kg/ha
  Herbicidal rating CYPSE: 3.0
[8]; Rate 0.0158 kg/ha
  Postemergence herbicidal rating TRZAWR: 3.0
[8]; Rate 0.0315 kg/ha
  Postemergence herbicidal rating TRZAWR: 4.0
[8]; Rate 0.0630 kg/ha
  Postemergence herbicidal rating TRZAWR: 4.0
GALAP (Galium); Rate 0.0158 kg/ha
  Postemergence herbicidal rating GALAP: 4.0
GALAP (Galium); Rate 0.0315 kg/ha
  Postemergence herbicidal rating GALAP: 6.0
GALAP (Galium); Rate 0.0630 kg/ha
  Postemergence herbicidal rating GALAP: 5.0
CYPIR (Rice Flatsedge) [9]; rate 0.0313 kg/ha
  Herbicidal rating CYPIR: 0.0
CYPIR (Rice Flatsedge) [9]; rate 0.0625 kg/ha
  Herbicidal rating CYPIR: 9.0
CYPIR (Rice Flatsedge) [9]; rate 0.1250 kg/ha
  Herbicidal rating CYPIR: 9.0
CYPIR (Rice Flatsedge) [9]; rate 0.2500 kg/ha
  Herbicidal rating CYPIR: 9.0
[10]; 0.0313 kg/ha
  Herbicidal rating ECHORC: 0.0
[10]; 0.0625 kg/ha
  Herbicidal rating ECHORC: 2.0
[10]; 0.1250 kg/ha
  Herbicidal rating ECHORC: 2.0
[10]; 0.2500 kg/ha
  Herbicidal rating ECHORC: 5.0
ZEAMX (Corn, Field); Rate 0.0158 kg/ha
  Postemergence herbicidal rating ZEAMX: 4.5
ZEAMX (Corn, Field); Rate 0.0315 kg/ha
  Postemergence herbicidal rating ZEAMX: 5.0
ZEAMX (Corn, Field); Rate 0.0630 kg/ha
  Postemergence herbicidal rating ZEAMX: 5.0
CYPSE (Flatsedge) [11]; rate 0.0313 kg/ha
  Herbicidal rating CYPSE: 0.0
CYPSE (Flatsedge) [11]; rate 0.0625 kg/ha
  Herbicidal rating CYPSE: 0.0
CYPSE (Flatsedge) [11]; rate 0.1250 kg/ha
  Herbicidal rating CYPSE: 0.0
CYPSE (Flatsedge) [11]; rate 0.2500 kg/ha
  Herbicidal rating CYPSE: 3.0
[12]; 0.0313 kg/ha
  Herbicidal rating SAGPY: 0.0
[12]; 0.0625 kg/ha
  Herbicidal rating SAGPY: 0.0
[12]; 0.1250 kg/ha
  Herbicidal rating SAGPY: 0.0
[12]; 0.2500 kg/ha
  Herbicidal rating SAGPY: 6.0
MOOVA (Monochoria) [13]; rate 0.0313 kg/ha
  Herbicidal rating MOOVA: 9.0
MOOVA (Monochoria) [13]; rate 0.0625 kg/ha
  Herbicidal rating MOOVA: 9.0
MOOVA (Monochoria) [13]; rate 0.1250 kg/ha
  Herbicidal rating MOOVA: 9.0
MOOVA (Monochoria) [13]; rate 0.2500 kg/ha
  Herbicidal rating MOOVA: 9.0
ABUTH (Velvetleaf); Rate 0.0158 kg/ha
  Postemergence herbicidal rating ABUTH: 9.0
ABUTH (Velvetleaf); Rate 0.0315 kg/ha
  Postemergence herbicidal rating ABUTH: 9.0
ABUTH (Velvetleaf); Rate 0.0630 kg/ha
  Postemergence herbicidal rating ABUTH: 9.0
[14]; Rate 0.0158 kg/ha
  Postemergence herbicidal rating GLXMAW: 6.5
[14]; Rate 0.0315 kg/ha
  Postemergence herbicidal rating GLXMAW: 6.5
[14]; Rate 0.0630 kg/ha
  Postemergence herbicidal rating GLXMAW: 9.0
ORYSAT (Rice, Tebonnet); Rate 0.0158 kg/ha
  Postemergence herbicidal rating ORYSAT: 1.5
ORYSAT (Rice, Tebonnet); Rate 0.0315 kg/ha
  Postemergence herbicidal rating ORYSAT: 2.5
ORYSAT (Rice, Tebonnet); Rate 0.0630 kg/ha
  Postemergence herbicidal rating ORYSAT: 3.0
ECHCG (Barnyardgrass); Rate 0.0158 kg/ha
  Postemergence herbicidal rating ECHCG: 1.0
ECHCG (Barnyardgrass); Rate 0.0315 kg/ha
  Postemergence herbicidal rating ECHCG: 1.0
ECHCG (Barnyardgrass); Rate 0.0630 kg/ha
  Postemergence herbicidal rating ECHCG: 1.0
CASOB (Sicklepod); Rate 0.0158 kg/ha
  Postemergence herbicidal rating CASOB: 2.0
CASOB (Sicklepod); Rate 0.0315 kg/ha
  Postemergence herbicidal rating CASOB: 2.0
CASOB (Sicklepod); Rate 0.0630 kg/ha
  Postemergence herbicidal rating CASOB: 6.0
